In article PMC5958214, “Chloroplastic Serine Hydroxymethyltransferase From Medicago truncatula: A Structural Characterization” (Frontiers in Plant Science, 2018):
One block for each molecule: values may come before it.

Columns and labels:
[1] = target: T1, MtSHMT3 (chloroplastic serine hydroxymethyltransferase) (Medicago truncatula, UniProt G7ILW0); test: X-ray crystallography, […] A; type: binding
T1 construct: gene MTR_2g018290; residues 82-533, targeting peptide removed (N-truncated at F82, begins FLDYGLSEA); His6-TEV tag cut, Ser-Asn-Ala linker left; E. coli BL21 Gold, pMCSG68; homotetramer, ~197 kDa theoretical; active site shared within tight dimer
T1 sequence (G7ILW0 entry or part of it): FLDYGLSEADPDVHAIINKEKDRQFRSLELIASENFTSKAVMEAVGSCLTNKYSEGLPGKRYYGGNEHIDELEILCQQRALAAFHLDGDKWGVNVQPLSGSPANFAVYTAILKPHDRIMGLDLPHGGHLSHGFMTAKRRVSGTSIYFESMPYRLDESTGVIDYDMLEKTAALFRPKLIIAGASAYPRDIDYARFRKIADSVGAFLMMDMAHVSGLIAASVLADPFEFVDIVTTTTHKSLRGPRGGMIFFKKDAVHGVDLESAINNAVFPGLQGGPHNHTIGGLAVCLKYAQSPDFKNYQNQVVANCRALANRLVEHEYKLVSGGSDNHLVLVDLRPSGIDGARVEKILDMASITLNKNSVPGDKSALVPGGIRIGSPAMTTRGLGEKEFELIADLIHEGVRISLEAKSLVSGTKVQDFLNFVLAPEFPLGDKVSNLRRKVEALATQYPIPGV

[2] = target: chloroplast-targeted serine hydroxymethyltransferase from Medicago truncatula (MtSHMT3), residues 82-533 (Medicago truncatula); test: crystal structure; three non-isomorphous crystal forms (holo/apo in Tacsimate pH 7.0; Ser-soaked in MES pH 6.5, PEG 3350, ammonium acetate; selenourea-soaked); assemblies analysed with PISA
[3] = target: chloroplast-targeted serine hydroxymethyltransferase from Medicago truncatula (MtSHMT3), residues 82-533 (Medicago truncatula); test: SEC; HiLoad Superdex 200 16/60; 25 mM Hepes-NaOH pH 7.5, 100 mM KCl, 50 mM NaCl, 1 mM TCEP; standard curve from thyroglobulin, gamma-globulin, ovalbumin and myoglobin
[4] = target: T1, MtSHMT3 (chloroplastic serine hydroxymethyltransferase); test: X-ray crystallography, […] A; type: binding; conditions: covalent; internal aldimine (Schiff base) with K318; full occupancy in chains A and B; crystals from 55% Tacsimate pH 7.0; PLP from expression culture

Molecule: NCC(=O)O [Gly, glycine]
X-ray crystallography, 1.91 A ([1]; Ser-soaked crystal, covalent PLP-Gly external aldimine in chains B and F, free Gly with PLP internal aldimine in chains E and H, no tetrahydrofolate): PLP-Gly external aldimine (chains B and F), and PLP internal aldimine with free Gly

stoichiometry N [2]: 4
stoichiometry N [3]: 4
Molecule: chloroplast-targeted serine hydroxymethyltransferase from Medicago truncatula (MtSHMT3), residues 82-533 (enzyme)

Molecule: Cc1ncc(COP(=O)(O)O)c(C=O)c1O [PLP, pyridoxal 5′-phosphate]
X-ray crystallography, 1.74 A [4]: two protein chains (A and B) contain the PLP bound as a Schiff base internal aldimine

Molecule: N[C@@H](CO)C(=O)O [Ser, L-serine]
X-ray crystallography, 1.91 A ([1]; covalent, PLP-Ser external aldimine in chains A and D, crystals soaked with 200 mM Ser for 2 h, pH 6.5, no tetrahydrofolate): PLP-Ser external aldimine (chains A and D)
